Here are results for 23 molecules from US10570129B2 (Zoetis Services LLC, priority 2015, dated 2020).

The structures appear in SMILES notation.

For one assay, the system named is Haemonchus contortus L3. Briefly: microbe, parasite or virus in culture. The assay is classed as cell-based. To be noted: Haemonchus contortus, 96 h, read-out: HcL3 Minimal Effective Concentration (MEC).
For another assay, the system named is D. immitis microfilariae. Briefly: Dirofilaria immitis, microfilariae (DiMF) in vitro motility assay. To be noted: Dirofilaria immitis, 72 h, read-out: DiMF minimally effective dose (MEC). The assay is classed as cell-based.

For the molecule `N#Cc1ccc2c3c(n(C(=O)NCc4ccnc(F)c4)c2c1)CCN(C/C=C/c1ccc(Cl)c(F)c1)C3` [Example 51, (E)-2-(3-(4-chloro-3-fluorophenyl)allyl)-7-cyano-N-((2-fluoropyridin-4-yl)methyl)-1,2,3,4-tetrahydro-5H-pyrido[4,3-b]indole-5-carboxamide], the values for the minimal effective concentration in the assay on Haemonchus contortus L3 and in the assay on D. immitis microfilariae were 3.3 µM and 5.7 µM, respectively.
On the same counts, the results for `N#Cc1ccc2c3c(n(C(=O)NCc4ccnc(F)c4)c2c1)CCN(C/C=C/c1ccc(Cl)cc1F)C3` [Example 52, (E)-2-(3-(4-chloro-2-fluorophenyl)allyl)-7-cyano-N-((2-fluoropyridin-4-yl)methyl)-1,2,3,4-tetrahydro-5H-pyrido[4,3-b]indole-5-carboxamide] are 5.7 µM and 10 µM.
For `N#Cc1ccc2c3c(n(C(=O)NCc4ccnc(F)c4)c2c1)CCN(C/C=C/c1ccc(Cl)c(F)c1F)C3` [Example 53, (E)-2-(3-(4-chloro-2,3-difluorophenyl)allyl)-7-cyano-N-((2-fluoropyridin-4-yl)methyl)-1,2,3,4-tetrahydro-5H-pyrido[4,3-b]indole-5-carboxamide], the minimal effective concentration was 5.7 µM in the assay on Haemonchus contortus L3 and greater than 100 µM in the assay with D. immitis microfilariae.
Consider `N#Cc1ccc2c3c(n(C(=O)NCc4ccnc(F)c4)c2c1)CCN(C/C=C/c1cc(F)cc(OC(F)(F)F)c1)C3` [Example 54, (E)-7-cyano-2-(3-(3-fluoro-5-(trifluoromethoxy)phenyl)allyl)-N-((2-fluoro-pyridin-4-yl)methyl)-1,2,3,4-tetrahydro-5H-pyrido[4,3-b]indole-5-carboxamide], for which the minimal effective concentration was greater than 100 µM with Haemonchus contortus L3 and 10 µM with D. immitis microfilariae.
The like results for `N#Cc1ccc2c3c(n(C(=O)NCc4ccnc(F)c4)c2c1)CCN(C/C=C/c1ccc(Cl)cc1)C3` [Example 55, (E)-2-(3-(4-chlorophenyl)allyl)-7-cyano-N-((2-fluoropyridin-4-yl)methyl)-1,2,3,4-tetrahydro-5H-pyrido[4,3-b]indole-5-carboxamide] were, in that order, greater than 100 µM and 10 µM.
On the same counts, the results for `COc1cc(CNC(=O)n2c3c(c4ccc(C#N)cc42)CN(C/C=C/c2ccc(Cl)c(F)c2)CC3)ccn1` [Example 59, (E)-2-(3-(4-chloro-3-fluorophenyl)allyl)-7-cyano-N-((2-methoxypyridin-4-yl)methyl)-1,2,3,4-tetrahydro-5H-pyrido[4,3-b]indole-5-carboxamide] are 7.7 µM and 10 µM.
With `N#Cc1ccc2c3c(n(C(=O)NCc4ccnc(C(F)(F)F)c4)c2c1)CCN(C/C=C/c1ccc(Cl)c(F)c1)C3` [Example 60, (E)-2-(3-(4-chloro-3-fluorophenyl)allyl)-7-cyano-N-((2-(trifluoromethyl)pyridin-4-yl)methyl)-1,2,3,4-tetrahydro-5H-pyrido[4,3-b]indole-5-carboxamide], the figures for the minimal effective concentration in the assay with Haemonchus contortus L3 and in the assay with D. immitis microfilariae were 4.4 µM and 13.5 µM, respectively.
On the same counts, the results for `COc1cc(CNC(=O)n2c3c(c4cc(C#N)ccc42)CN(C/C=C/c2ccc(Cl)c(F)c2)CC3)ccn1` [Example 64, (E)-2-(3-(4-chloro-3-fluorophenyl)allyl)-8-cyano-N-((2-methoxypyridin-4-yl)methyl)-1,2,3,4-tetrahydro-5H-pyrido[4,3-b]indole-5-carboxamide] are 0.5 µM and 3.3 µM.
Consider `COc1cc(CNC(=O)n2c3c(c4cc(C#N)ccc42)CN(C/C=C/c2ccc(F)c(Cl)c2)CC3)ccn1` [Example 68, (E)-2-(3-(3-chloro-4-fluorophenyl)allyl)-8-cyano-N-((2-methoxypyridin-4-yl)methyl)-1,2,3,4-tetrahydro-5H-pyrido[4,3-b]indole-5-carboxamide], for which the minimal effective concentration was found to be 0.01 µM in the assay on Haemonchus contortus L3 and 0.03 µM with D. immitis microfilariae.
On the same counts, the results for `COc1cc(CNC(=O)n2c3c(c4cc(C#N)ccc42)CN(C/C=C/c2ccc(Cl)c(Cl)c2)CC3)ccn1` [Example 69, (E)-8-cyano-2-(3-(3,4-dichlorophenyl)allyl)-N-((2-methoxypyridin-4-yl)methyl)-1,2,3,4-tetrahydro-5H-pyrido[4,3-b]indole-5-carboxamide] are 0.02 µM and 0.03 µM.
On the same counts, the results for `N#Cc1ccc2c(c1)c1c(n2C(=O)NCc2ccnc(Cl)c2)CCN(C/C=C/c2cc(F)c(Cl)c(F)c2)C1` [Example 71, (E)-2-(3-(4-chloro-3,5-difluorophenyl)allyl)-N-((2-chloropyridin-4-yl)methyl)-8-cyano-1,2,3,4-tetrahydro-5H-pyrido[4,3-b]indole-5-carboxamide] are 0.2 µM and greater than 100 µM.
The like results for `N#Cc1ccc2c(c1)c1c(n2C(=O)NCc2ccnc(Cl)c2)CCN(C/C=C/c2ccc(Cl)c(F)c2)C1` [Example 72, (E)-2-(3-(4-chloro-3-fluorophenyl)allyl)-N-((2-chloropyridin-4-yl)methyl)-8-cyano-1,2,3,4-tetrahydro-5H-pyrido[4,3-b]indole-5-carboxamide] were, in that order, 0.2 µM and 5.1 µM.
As for `N#Cc1ccc2c(c1)c1c(n2C(=O)NCc2ccnc(Cl)c2)CCN(C/C=C/c2ccc(Br)cc2F)C1` [Example 73, (E)-2-(3-(4-bromo-2-fluorophenyl)allyl)-N-((2-chloropyridin-4-yl)methyl)-8-cyano-1,2,3,4-tetrahydro-5H-pyrido[4,3-b]indole-5-carboxamide], the figures for the minimal effective concentration in the assay with Haemonchus contortus L3 and in the assay with D. immitis microfilariae were 0.1 µM and greater than 100 µM, respectively.
On the same counts, the results for `N#Cc1ccc2c(c1)c1c(n2C(=O)NCc2ccnc(Cl)c2)CCN(C/C=C/c2c(F)cc(Cl)cc2F)C1` [Example 74, (E)-2-(3-(4-chloro-2,6-difluorophenyl)allyl)-N-((2-chloropyridin-4-yl)methyl)-8-cyano-1,2,3,4-tetrahydro-5H-pyrido[4,3-b]indole-5-carboxamide] are 0.2 µM and greater than 100 µM.
On the same counts, the results for `N#Cc1ccc2c(c1)c1c(n2C(=O)NCc2ccnc(Cl)c2)CCN(C/C=C/c2ccc(Cl)cc2F)C1` [Example 75, (E)-2-(3-(4-chloro-2-fluorophenyl)allyl)-N-((2-chloropyridin-4-yl)methyl)-8-cyano-1,2,3,4-tetrahydro-5H-pyrido[4,3-b]indole-5-carboxamide] are 0.1 µM and 10.2 µM.
On the same counts, the results for `N#Cc1ccc2c(c1)c1c(n2C(=O)NCc2ccnc(Cl)c2)CCN(C/C=C/c2c(F)cc(F)cc2F)C1` [Example 76, (E)-N-((2-chloropyridin-4-yl)methyl)-8-cyano-2-(3-(2,4,6-trifluorophenyl)allyl)-1,2,3,4-tetrahydro-5H-pyrido[4,3-b]indole-5-carboxamide] are 0.1 µM and greater than 100 µM.
Turning to `N#Cc1ccc2c(c1)c1c(n2C(=O)NCc2ccnc(Cl)c2)CCN(C/C=C/c2cc(F)ccc2Br)C1` [Example 77, (E)-2-(3-(2-bromo-5-fluorophenyl)allyl)-N-((2-chloropyridin-4-yl)methyl)-8-cyano-1,2,3,4-tetrahydro-5H-pyrido[4,3-b]indole-5-carboxamide], the minimal effective concentration in the assay on Haemonchus contortus L3 was 0.3 µM; in the assay with D. immitis microfilariae it was greater than 100 µM.
On the same counts, the results for `N#Cc1ccc2c(c1)c1c(n2C(=O)NCc2ccnc(Cl)c2)CCN(C/C=C/c2cc(Br)ccc2F)C1` [Example 78, (E)-2-(3-(5-bromo-2-fluorophenyl)allyl)-N-((2-chloropyridin-4-yl)methyl)-8-cyano-1,2,3,4-tetrahydro-5H-pyrido[4,3-b]indole-5-carboxamide] are 0.6 µM and greater than 100 µM.
As for `N#Cc1ccc2c(c1)c1c(n2C(=O)NCc2ccnc(Cl)c2)CCN(C/C=C/c2ccc(F)c(Br)c2)C1` [Example 79, (E)-2-(3-(3-bromo-4-fluorophenyl)allyl)-N-((2-chloropyridin-4-yl)methyl)-8-cyano-1,2,3,4-tetrahydro-5H-pyrido[4,3-b]indole-5-carboxamide], the minimal effective concentration in the assay with Haemonchus contortus L3 is 0.3 µM; in the assay with D. immitis microfilariae, greater than 100 µM.
The like results for `N#Cc1ccc2c(c1)c1c(n2C(=O)NCc2ccnc(Cl)c2)CCN(C/C=C/c2ccc(F)c(F)c2F)C1` [Example 80, (E)-N-((2-chloropyridin-4-yl)methyl)-8-cyano-2-(3-(2,3,4-trifluorophenyl)allyl)-1,2,3,4-tetrahydro-5H-pyrido[4,3-b]indole-5-carboxamide] were, in that order, 0.06 µM and greater than 100 µM.
On to `N#Cc1ccc2c(c1)c1c(n2C(=O)NCc2ccnc(Cl)c2)CCN(C/C=C/c2ccc(Br)c(F)c2F)C1` [Example 81, (E)-2-(3-(4-bromo-2,3-difluorophenyl)allyl)-N-((2-chloropyridin-4-yl)methyl)-8-cyano-1,2,3,4-tetrahydro-5H-pyrido[4,3-b]indole-5-carboxamide], for which the minimal effective concentration is 0.2 µM in the assay on Haemonchus contortus L3 and greater than 100 µM in the assay on D. immitis microfilariae.
The like results for `N#Cc1ccc2c(c1)c1c(n2C(=O)NCc2ccnc(Cl)c2)CCN(C/C=C/c2ccc(Cl)c(F)c2F)C1` [Example 82, (E)-2-(3-(4-chloro-2,3-difluorophenyl)allyl)-N-((2-chloropyridin-4-yl)methyl)-8-cyano-1,2,3,4-tetrahydro-5H-pyrido[4,3-b]indole-5-carboxamide] were, in that order, 0.2 µM and greater than 100 µM.
The like results for `N#Cc1ccc2c(c1)c1c(n2C(=O)NCc2ccnc(Cl)c2)CCN(C/C=C/c2c(F)c(F)c(F)c(F)c2F)C1` [Example 83, (E)-N-((2-chloropyridin-4-yl)methyl)-8-cyano-2-(3-(perfluorophenyl)allyl)-1,2,3,4-tetrahydro-5H-pyrido[4,3-b]indole-5-carboxamide] were, in that order, 0.1 µM and greater than 100 µM.
